According to patent US7432260B2, “Pyrimidine compounds” (Cyclacel Limted, priority 2002, dated 2008):
Like-named read-outs stand apart in the source and are kept apart here.

How the values were obtained:
CDK7/cyclin H = CDK7/cyclin H (Homo sapiens, UniProt P50613); assay: CDK7 assay; type: biochemical
In short: (§1)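 Radiometric filter-binding format: test compound at varying amounts incubated with CTD peptide (biotinyl-Ahx-(YSPTSPS)4-NH2) and either CDK9/cyclin T1 or CDK7/cyclin H, using 100 μM ATP spiked with 32P, 45 min, 30 °C, pH 7.2. Reactions were stopped on ice, bound to avidin, filtered on P81 plates and scintillation-counted.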

[1] = molecular target: SAPK2a (stress-activated protein kinase 2a) (Homo sapiens, UniProt Q16539); assay: Kinase assay SAPK2a; type: biochemical; conditions: Table 3 selectivity panel; read-out: Kinase specificity IC50 SAPK2a
SAPK2a (stress-activated protein kinase 2a), sequence (Q16539 whole entry, species assumed): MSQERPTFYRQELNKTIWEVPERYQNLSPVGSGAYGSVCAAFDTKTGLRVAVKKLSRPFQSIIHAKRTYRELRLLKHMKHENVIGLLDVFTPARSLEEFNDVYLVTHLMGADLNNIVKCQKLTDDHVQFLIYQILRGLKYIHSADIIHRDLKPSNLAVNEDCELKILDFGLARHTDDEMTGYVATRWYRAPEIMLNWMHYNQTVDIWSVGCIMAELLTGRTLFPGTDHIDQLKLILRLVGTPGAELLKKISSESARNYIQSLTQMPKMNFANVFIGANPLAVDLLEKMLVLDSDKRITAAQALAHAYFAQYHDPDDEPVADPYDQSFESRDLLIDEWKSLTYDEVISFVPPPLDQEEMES
Protocol: (§2) Kinase assays. […] This was achieved by measurement of incorporation of radioactive phosphate from ATP into appropriate polypeptide substrates. Recombinant protein kinases and kinase complexes were produced or obtained commercially. Assays were performed using 96-well plates and appropriate assay buffers (typically 25 mM β-glycerophosphate, 20 mM MOPS, 5 mM EGTA, 1 mM DTT, 1 mM […], pH 7.4), into which were added 2-4 μg of active enzyme with appropriate substrates. The reactions were initiated by addition of Mg/ATP mix (15 mM MgCl2+100 μM ATP with 30-50 kBq per well of [γ-^32P]-ATP) and mixtures incubated as required at 30° C. Reactions were stopped on ice, followed by filtration through p81 filterplates or GF/C filterplates (Whatman Polyfiltronics, Kent, UK). After washing 3 times with 75 mM aq orthophosphoric acid, plates were dried, scintillant added and incorporated radioactivity measured in a scintillation counter (TopCount, Packard Instruments, Pangbourne, Berks, UK). Compounds for kinase assay were made-up as 10 mM stocks in DMSO and diluted into 10% DMSO inrassay buffer.

A549 = assay: 72-h MTT cytotoxicity assay A549; type: cell-based; conditions: Homo sapiens, A549, 72 h
In short: (§3)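 MTT viability, 72 h compound exposure at 37° C; triplicate wells, 1/3 serial dilutions from DMSO stocks; seeding density per doubling time; MTT 4 h in dark; DMSO solubilisation.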

HT29 = assay: 72-h MTT cytotoxicity assay HT29; type: cell-based; conditions: Homo sapiens, HT-29, 72 h
In short: as §3

Saos-2 = assay: 72-h MTT cytotoxicity assay Saos-2; type: cell-based; conditions: Homo sapiens, SAOS-2, 72 h
In short: as §3

H1299 = assay: 72-h MTT cytotoxicity assay H1299; type: cell-based; conditions: Homo sapiens, NCI-H1299, 72 h; Table 5; Lung
Protocol: (§4) MTT cytotoxicity assay. […] Standard 72-h MTT (thiazolyl blue; 3-[4,5-dimethylthiazol-2-yl]-2,5-diphenyltetrazolium bromide) assays were performed (Haselsberger, K.; Peterson, D. C.; Thomas, D. G.; Darling, J. L. Anti Cancer Drugs 1996, 7, 331-8; Loveland, B. E.; Johns, T. G.; Mackay, I. R.; Vaillant, F.; Wang, Z. X.; Hertzog, P. J. Biochemistry International 1992, 27, 501-10). In short: cells were seeded into 96-well plates according to doubling time and incubated overnight at 37° C. Test compounds were made up in DMSO and a 1/3 dilution series prepared in 100 μL cell media, added to cells (in triplicates) and incubated for 72 ho at 37° C. MTT was made up as a stock of 5 mg/mL in cell media and filter-sterilised. Media was removed from cells followed by a wash with 200 μL PBS.
(§5) MTT solution was then added at 20 μL per well and incubated in the dark at 37° C. for 4 h. MTT solution was removed and cells again washed with 200 μL PBS. MTT dye was solubilised with 200 μL per well of DMSO with agitation.

K562 = assay: 72-h MTT cytotoxicity assay K562; type: cell-based; conditions: Homo sapiens, K562, 72 h; Table 5; Chronic myelogenous leukaemia
Protocol: as §4, §5

CDK1/cyclin B = CDK1/cyclin B (Homo sapiens, UniProt P06493); assay: Kinase assay CDK1/cyclin B; type: biochemical
CDK1/cyclin B, sequence (P06493 whole entry): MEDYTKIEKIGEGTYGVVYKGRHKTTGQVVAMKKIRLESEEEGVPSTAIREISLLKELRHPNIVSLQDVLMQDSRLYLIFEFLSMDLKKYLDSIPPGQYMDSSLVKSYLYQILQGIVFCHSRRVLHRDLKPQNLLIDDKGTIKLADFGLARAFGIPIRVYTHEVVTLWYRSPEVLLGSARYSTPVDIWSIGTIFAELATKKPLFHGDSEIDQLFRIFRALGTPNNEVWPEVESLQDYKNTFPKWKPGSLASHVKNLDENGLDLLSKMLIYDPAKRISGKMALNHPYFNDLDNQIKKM
CDK1/cyclin B, sequence (P14635 whole entry partner): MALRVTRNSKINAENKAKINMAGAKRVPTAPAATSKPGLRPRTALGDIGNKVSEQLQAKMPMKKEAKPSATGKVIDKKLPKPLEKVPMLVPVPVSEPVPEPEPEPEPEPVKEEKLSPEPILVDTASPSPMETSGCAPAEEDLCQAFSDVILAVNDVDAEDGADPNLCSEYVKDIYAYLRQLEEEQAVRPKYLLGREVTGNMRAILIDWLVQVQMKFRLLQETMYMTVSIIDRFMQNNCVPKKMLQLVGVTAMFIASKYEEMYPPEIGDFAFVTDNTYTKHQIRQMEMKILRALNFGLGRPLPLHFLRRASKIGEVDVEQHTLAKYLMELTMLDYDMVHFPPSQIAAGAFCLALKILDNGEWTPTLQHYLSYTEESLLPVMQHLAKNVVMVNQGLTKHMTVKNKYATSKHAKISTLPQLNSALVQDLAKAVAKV
In short: (§6)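 Each kinase phosphorylates a suitable polypeptide using 32P-labelled ATP (100 μM) at 30° C. Filtered, washed product is counted.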

CDK4/cyclin D1 = CDK4/cyclin D1 (Homo sapiens, UniProt P11802); assay: Kinase assay CDK4/cyclin D1; type: biochemical
CDK4/cyclin D1, sequence (P11802 whole entry): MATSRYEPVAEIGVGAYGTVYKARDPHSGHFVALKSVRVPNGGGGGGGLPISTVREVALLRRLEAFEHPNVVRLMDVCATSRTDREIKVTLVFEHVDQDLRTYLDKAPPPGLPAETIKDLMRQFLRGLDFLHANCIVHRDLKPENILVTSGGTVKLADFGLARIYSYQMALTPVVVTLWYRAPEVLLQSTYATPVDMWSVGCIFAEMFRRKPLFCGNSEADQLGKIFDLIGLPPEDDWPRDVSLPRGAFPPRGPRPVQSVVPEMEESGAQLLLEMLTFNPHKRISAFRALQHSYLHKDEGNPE
CDK4/cyclin D1, sequence (P24385 whole entry partner): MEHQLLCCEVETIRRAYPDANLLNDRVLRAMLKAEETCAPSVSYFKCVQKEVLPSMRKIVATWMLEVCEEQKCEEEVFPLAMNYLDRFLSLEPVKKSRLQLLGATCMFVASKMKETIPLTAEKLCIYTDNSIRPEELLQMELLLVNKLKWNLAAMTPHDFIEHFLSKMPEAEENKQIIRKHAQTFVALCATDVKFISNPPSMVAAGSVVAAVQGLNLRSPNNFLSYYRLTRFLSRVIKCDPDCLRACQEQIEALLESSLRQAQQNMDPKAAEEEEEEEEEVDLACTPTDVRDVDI
In short: as §6

CDK9/cyclin T1 = CDK9/cyclin T1 (Homo sapiens, UniProt P50750); assay: CDK9 assay; type: biochemical
CDK9/cyclin T1, sequence (P50750 whole entry): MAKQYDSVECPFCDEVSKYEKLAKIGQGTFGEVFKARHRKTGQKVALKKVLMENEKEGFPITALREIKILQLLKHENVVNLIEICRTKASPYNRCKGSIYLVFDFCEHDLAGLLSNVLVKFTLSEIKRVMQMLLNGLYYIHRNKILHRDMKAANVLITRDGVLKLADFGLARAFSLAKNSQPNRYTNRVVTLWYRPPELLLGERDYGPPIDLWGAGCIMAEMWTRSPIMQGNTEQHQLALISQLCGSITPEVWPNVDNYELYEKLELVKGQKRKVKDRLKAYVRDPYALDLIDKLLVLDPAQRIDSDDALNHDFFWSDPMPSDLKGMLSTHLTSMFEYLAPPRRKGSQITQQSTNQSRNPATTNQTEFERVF
CDK9/cyclin T1, sequence (O60563 whole entry partner): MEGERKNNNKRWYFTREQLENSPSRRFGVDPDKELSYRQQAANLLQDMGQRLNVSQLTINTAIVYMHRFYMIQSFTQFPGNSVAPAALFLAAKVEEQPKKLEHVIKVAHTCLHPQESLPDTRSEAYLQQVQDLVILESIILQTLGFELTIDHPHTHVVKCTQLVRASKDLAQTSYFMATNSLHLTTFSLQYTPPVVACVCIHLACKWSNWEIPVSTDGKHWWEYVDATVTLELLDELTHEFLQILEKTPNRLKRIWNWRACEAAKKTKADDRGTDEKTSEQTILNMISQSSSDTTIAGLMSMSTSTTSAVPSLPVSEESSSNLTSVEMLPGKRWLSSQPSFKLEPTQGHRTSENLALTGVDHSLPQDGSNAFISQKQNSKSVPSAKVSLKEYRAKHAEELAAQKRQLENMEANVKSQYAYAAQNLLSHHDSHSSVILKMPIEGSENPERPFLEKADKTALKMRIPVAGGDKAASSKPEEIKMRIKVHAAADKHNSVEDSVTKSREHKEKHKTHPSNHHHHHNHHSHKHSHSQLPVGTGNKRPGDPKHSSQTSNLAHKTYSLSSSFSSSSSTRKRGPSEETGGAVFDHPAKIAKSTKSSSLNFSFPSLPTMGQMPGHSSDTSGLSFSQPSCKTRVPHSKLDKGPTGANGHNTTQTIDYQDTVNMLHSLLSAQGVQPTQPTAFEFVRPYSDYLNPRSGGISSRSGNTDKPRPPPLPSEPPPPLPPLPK
In short: as §1

GSK-3β = GSK-3β (Homo sapiens, UniProt P49841); assay: Kinase assay GSK-3β; type: biochemical
GSK-3β, sequence (P49841 whole entry): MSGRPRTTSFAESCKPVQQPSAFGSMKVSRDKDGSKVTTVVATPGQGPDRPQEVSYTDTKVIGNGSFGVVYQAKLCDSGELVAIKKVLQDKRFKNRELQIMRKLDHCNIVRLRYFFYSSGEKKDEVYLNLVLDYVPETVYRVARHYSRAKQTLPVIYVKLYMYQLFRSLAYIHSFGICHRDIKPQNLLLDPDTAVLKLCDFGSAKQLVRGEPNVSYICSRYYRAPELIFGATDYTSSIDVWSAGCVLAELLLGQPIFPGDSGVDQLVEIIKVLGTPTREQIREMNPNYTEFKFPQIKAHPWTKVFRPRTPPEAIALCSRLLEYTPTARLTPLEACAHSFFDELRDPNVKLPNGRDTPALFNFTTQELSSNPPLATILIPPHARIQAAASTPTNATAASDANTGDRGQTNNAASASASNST
In short: as §6

[2] = molecular target: Abl (Ableson tyrosine kinase) (Homo sapiens, UniProt P00519); assay: Kinase assay Abl; type: biochemical; conditions: Table 3 selectivity panel; read-out: Kinase specificity IC50 Abl
Abl (Ableson tyrosine kinase), sequence (P00519 whole entry, species assumed): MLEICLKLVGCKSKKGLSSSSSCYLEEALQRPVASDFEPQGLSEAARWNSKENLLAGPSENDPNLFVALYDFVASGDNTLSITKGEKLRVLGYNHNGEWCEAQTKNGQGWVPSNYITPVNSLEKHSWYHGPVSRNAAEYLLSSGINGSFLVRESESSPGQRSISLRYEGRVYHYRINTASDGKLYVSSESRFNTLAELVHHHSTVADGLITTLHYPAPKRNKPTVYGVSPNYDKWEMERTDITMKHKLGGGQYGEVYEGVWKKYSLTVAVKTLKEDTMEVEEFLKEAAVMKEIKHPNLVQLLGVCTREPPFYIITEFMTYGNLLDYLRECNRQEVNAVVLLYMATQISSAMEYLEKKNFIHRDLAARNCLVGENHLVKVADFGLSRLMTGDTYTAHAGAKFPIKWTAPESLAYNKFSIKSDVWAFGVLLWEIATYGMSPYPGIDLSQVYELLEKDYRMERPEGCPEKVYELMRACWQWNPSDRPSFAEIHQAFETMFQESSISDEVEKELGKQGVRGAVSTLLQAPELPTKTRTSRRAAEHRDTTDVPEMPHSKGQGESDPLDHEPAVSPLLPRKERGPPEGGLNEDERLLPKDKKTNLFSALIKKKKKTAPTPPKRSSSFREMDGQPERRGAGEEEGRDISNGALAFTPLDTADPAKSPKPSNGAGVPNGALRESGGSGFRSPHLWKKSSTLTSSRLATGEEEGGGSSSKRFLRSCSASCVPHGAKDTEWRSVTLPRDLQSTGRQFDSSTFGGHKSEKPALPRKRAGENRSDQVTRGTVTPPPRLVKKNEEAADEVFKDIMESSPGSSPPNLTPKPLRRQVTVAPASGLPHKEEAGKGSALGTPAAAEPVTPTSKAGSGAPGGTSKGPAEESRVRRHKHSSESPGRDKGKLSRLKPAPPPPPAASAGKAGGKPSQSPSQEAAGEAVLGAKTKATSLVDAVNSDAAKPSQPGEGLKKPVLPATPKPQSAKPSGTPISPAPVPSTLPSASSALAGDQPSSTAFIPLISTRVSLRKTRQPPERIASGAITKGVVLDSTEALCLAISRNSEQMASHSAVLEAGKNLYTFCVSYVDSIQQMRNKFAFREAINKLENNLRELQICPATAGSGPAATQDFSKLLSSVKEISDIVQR
Protocol: as §2

[3] = Table 2, read-out: Kinase Inhibition IC50 CDK7 cyclin H
[4] = Table 3 selectivity panel, CDK7/cyclin H/MAT 1 complex, read-out: Kinase specificity IC50 CDK7/H
[5] = Table 2, read-out: Kinase Inhibition IC50 CDK1 cyclin B
[6] = Table 3 selectivity panel, read-out: Kinase specificity IC50 CDK1/B1
[7] = Table 2, read-out: Kinase Inhibition IC50 CDK4 cyclin D1
[8] = Table 3 selectivity panel, read-out: Kinase specificity IC50 CDK4/D1
[9] = Table 2, read-out: Kinase Inhibition IC50 CDK9 cyclin T1
[10] = Table 3 selectivity panel, read-out: Kinase specificity IC50 CDK9/T1
[11] = Table 2, read-out: Kinase Inhibition IC50 GSK-3β
[12] = Table 3 selectivity panel, glycogen synthase kinase 3β, read-out: Kinase specificity IC50 GSK-3

CDK7/cyclin H, sequence (P50613 whole entry): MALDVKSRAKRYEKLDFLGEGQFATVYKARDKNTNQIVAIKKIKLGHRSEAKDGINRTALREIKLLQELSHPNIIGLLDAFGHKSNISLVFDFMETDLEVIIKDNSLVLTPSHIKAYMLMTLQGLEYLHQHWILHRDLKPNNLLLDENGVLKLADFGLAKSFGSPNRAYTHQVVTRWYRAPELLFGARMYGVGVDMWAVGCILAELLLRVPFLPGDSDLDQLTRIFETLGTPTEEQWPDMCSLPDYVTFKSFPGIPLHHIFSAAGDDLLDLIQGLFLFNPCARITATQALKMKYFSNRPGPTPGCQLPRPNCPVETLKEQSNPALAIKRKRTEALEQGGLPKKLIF

| SMILES | IC50 (CDK7/cyclin H; [3]) [nM] | IC50 (CDK7/cyclin H; [4]) [nM] | IC50 [1] [nM] | IC50 (A549; Table 4) [nM] | IC50 (A549; Table 5, Lung) [nM] | IC50 (HT29; Table 4) [nM] | IC50 (HT29; Table 5, Colon) [nM] | IC50 (Saos-2; Table 4) [nM] | IC50 (Saos-2; Table 5, Bone osteosarcoma) [nM] | IC50 (H1299) [nM] | IC50 (K562) [nM] | IC50 (CDK1/cyclin B; [5]) [nM] | IC50 (CDK1/cyclin B; [6]) [nM] | IC50 (CDK4/cyclin D1; [7]) [nM] | IC50 (CDK4/cyclin D1; [8]) [nM] | IC50 (CDK9/cyclin T1; [9]) [nM] | IC50 (CDK9/cyclin T1; [10]) [nM] | IC50 (GSK-3β; [11]) [nM] | IC50 (GSK-3β; [12]) [nM] | IC50 [2] [nM] |
| --- | --- | --- | --- | --- | --- | --- | --- | --- | --- | --- | --- | --- | --- | --- | --- | --- | --- | --- | --- | --- |
| Cc1nc(N)sc1-c1ccnc(Nc2ccc(N3CCOCC3)cc2)n1 [Compound 1, [4-(2-Amino-4-methyl-thiazol-5-yl)-pyrimidin-2-yl]-(4-morpholin-4-yl-phenyl)-amine] | 30000 | 56000 | > 100000 | 2100 | 1000 | 1700 | 1100 | 1900 | 100 | 900 | 3800 |  |  |  |  |  |  |  |  |  |
| CNc1nc(C)c(-c2ccnc(Nc3ccc(N4CCOCC4)cc3)n2)s1 [Compound 3, [4-(2-N-Methylamino-4-methyl-thiazol-5-yl)-pyrimidin-2-yl]-(4-morpholinophenyl)-amine] | 106000 | > 100000 | > 100000 | 3700 |  | 2800 |  | 3100 |  |  |  | 71000 | > 100000 | 1400 | 150 | 12000 | 8500 | > 100000 | > 100000 | 50000 |
| CCNc1nc(C)c(-c2ccnc(Nc3ccc(N4CCOCC4)cc3)n2)s1 [Compound 4, [4-(2-Ethylamino-4-methyl-thiazol-5-yl)-pyrimidin-2-yl]-(4-morpholin-4-yl-phenyl)-amine] | 12000 |  |  | 770 |  | 920 |  | 1200 |  |  |  | 30000 |  | 430 |  | 1800 |  | > 100000 |  |  |
| CNc1nc(C)c(-c2ccnc(Nc3ccc(N4CCN(Cc5ccccc5)CC4)cc3)n2)s1 [Compound 11, [4-(4-Benzyl-piperazin-1-yl)-phenyl]-[4-(4-methyl-2-methylamino-thiazol-5-yl)-pyrimidin-2-yl]-amine] | 19 | 19 | > 100000 | 2200 | 2200 | 1600 | 1600 | 3600 | 3700 | 1100 | 2100 | 2400 | 2400 | 9.8 | 9.8 | 1100 | 1100 | 6000 | 6000 | 72000 |
| Cc1nc(NC(=O)[C@H](N)[C@@H](C)O)sc1-c1ccnc(Nc2cccc([N+](=O)[O-])c2)n1 [Compound 15, (2R,3R)-2-Amino-3-hydroxy-N-{4-methyl-5-[2-(3-nitro-phenylamino)-pyrimidin-4-yl]-thiazol-2-yl}-butyramide] | 340 | 390 | > 100000 | 1100 | 600 | 1000 | 500 | 1900 | 400 | 1300 | 4600 | 5400 | 1600 | 2000 | 1600 | 70 | 110 | 610 | 540 | 760 |
| CC[C@@H](N)C(=O)Nc1nc(C)c(-c2ccnc(Nc3cccc([N+](=O)[O-])c3)n2)s1 [Compound 16, (2R)-2-Amino-N-{4-methyl-5-[2-(3-nitro-phenylamino)-pyrimidin-4-yl]-thiazol-2-yl}-butyramide] | 1100 | 970 | > 100000 | 530 | 500 | 290 | 300 |  | 600 | 600 | 2500 | 2800 | 2800 | 6700 | 6700 | 110 | 200 | 680 | 680 | 1500 |
| Cc1nc(C)c(-c2ccnc(Nc3ccc(NC(=O)CN4CCCC4)cc3)n2)s1 [Compound 53, N-{4-[4-(2,4-Dimethyl-thiazol-5-yl)-pyrimidin-2-ylamino]-phenyl}-2-pyrrolidin-1-yl-acetamide] | 440 |  |  | 770 |  | 950 |  | 530 |  |  |  | 5200 |  | 40 |  | 93 |  | 23000 |  |  |
